Drawing on ChEMBL document CHEMBL5604062, “ASAP - ZIKV NS2B-NS3 protease fluorescence dose response” (2024), this text covers IC50 for 71 molecules.

Each structure is given as a SMILES string. Values joined by “and” are separate entries in the source; they are usually repeats but may differ in a detail not shown here. Equal entries are not always repeated.

Sequence of Nonstructural protein 3 (A0A024AXB9 whole entry): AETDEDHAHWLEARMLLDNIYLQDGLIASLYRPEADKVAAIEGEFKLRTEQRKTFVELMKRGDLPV

This assay concerns the target Nonstructural protein 3 (Zika virus, UniProt A0A024AXB9). As to the kind of experiment: Functional biochemical assay to identify treatments for viral infectious disease that targets Zika NS2B-NS3 protease. Utilizing a direct enzyme activity measurement method, reading the fluorescence intensity is used to characterize the relative potency of inhibitors as IC50. Also on record: species or system PRVABC59.
`COc1cc(Br)cc(C(=O)Nc2ccc3c(c2)CNC3)c1` registered an IC50 of 0.332 µM.
`C[C@@H](N)c1ccc(NC(=O)c2cc(Cl)cc3[nH]ncc23)cc1`: the IC50 was determined as 2.91 µM.
`O=C1NCc2c1cccc2C(=O)Nc1ccc2c(c1)CNC2` registered an IC50 of 6.43 µM.
The value for `CCCN1C(=O)[C@](C#N)(Nc2cccc(-c3nn[nH]n3)c2)c2cc(Cl)ccc21` was over 99.5 µM; that for `NCc1ccc(NC(=O)c2cc(Cl)cc3[nH]ncc23)cc1F` was 4.94 µM; that for `CN(C(=O)c1cc(Cl)cc2[nH]ncc12)c1ccc2c(c1)CNC2` was 80 µM.
In turn, `O=C(Nc1ccc2c(c1)CNC2)c1ccn[nH]1` showed an IC50 of 62.1 µM.
The value for `O=c1[nH]c2cc(Cl)ccc2n1Cc1ccc(-c2nn[nH]n2)cc1` was over 99.5 µM.
Then `O=C(Nc1ccc2c(c1)CNC2)c1cnnc2ccccc12`, with 19.6 µM; and `C[C@H]1NCCc2c(-c3ccc4[nH]c(C(=O)O)cc4c3)cc(F)cc21`, with over 99.5 µM; and `CCOC(=O)N1CCC[C@H]1c1cccc(-c2ccc3[nH]c(C(=O)O)cc3c2)c1`, with over 99.5 µM.
Turning to `CNC(=O)[C@H](Nc1ccc2c(c1)CNC2)c1cccc2[nH]ncc12`, the half-inhibitory concentration (IC50) came out at 3.83 µM.
Consider `O=C(Nc1ccc2c(c1)CNC2)c1ncnc2sccc12`, for which the IC50 was over 99.5 µM.
As for `O=C(Nc1cc(Cl)cc(-c2ccc(C3(C(=O)O)CCNCC3)cc2)c1)OCc1ccccc1`, the half-inhibitory concentration (IC50) was over 99.5 µM.
With `N[C@H]1CCc2ccc(NC(=O)c3cc(Cl)cc4[nH]ncc34)cc21`, the IC50 is 1.49 µM.
`CCCN1C(=O)[C@](C#N)(Nc2ccc3c(c2)CNC3)c2ccccc21` showed a concentration for half-maximal inhibition (IC50) of 24 µM.
Take `Cc1ccncc1-c1cc(CN)cc([C@@H]2C[C@H]2c2cc(Cl)cc(NC(=O)OCc3ccccc3)c2)c1`: the IC50 stood at 21.1 µM.
Then `O=C1Cc2c(cccc2C(=O)Nc2ccc3c(c2)CNC3)N1`, with 0.404 µM and 1.27 µM.
As to `O=C(Nc1ccc2c(c1)CNCCC2)c1cc(Cl)cc2[nH]ncc12`, the IC50 was found to be 0.376 µM.
`O=C(Nc1ccc2c(c1)CNC2)c1cncc(-c2ccccc2)c1` had a half-inhibitory concentration (IC50) of 14.7 µM.
The molecule `O=C(O)C1CCC2(CC1)CC(Cc1c[nH]c3ccc(Cl)cc13)C2` (stereo unspecified) gave a concentration for half-maximal inhibition (IC50) of over 99.5 µM.
Molecule `Cc1cc(-c2ccc3[nH]c(C(=O)O)cc3c2)c(=O)n(Cc2ccccc2)c1` registered an IC50 of over 99.5 µM.
As for `N#Cc1ccc2[nH]cc(Cc3ccc(-c4nnn[nH]4)cc3)c2c1`, the concentration for half-maximal inhibition (IC50) was over 99.5 µM.
Turning to `Cn1ccc(-c2cc(CN)cc([C@@H]3C[C@H]3c3cc(Cl)cc(NC(=O)OCc4ccccc4)c3)c2)n1`, the midpoint of inhibition, the IC50, lay at 8.05 µM.
The value for `Clc1ccc2ncn(Cc3ccc4c(c3)CNC4)c2c1` was over 99.5 µM; that for `O=C(c1cc(Cl)cc2[nH]ncc12)N1C[C@H]2CNC[C@H]2C1` was over 99.5 µM.
On to `Cn1nc(C(=O)Nc2ccc3c(c2)CNC3)c2cc(Br)ccc21`, for which the half-inhibitory concentration (IC50) was found to be 6.63 µM.
`O=C(Nc1ccc2c(c1)COC2)c1cc(Cl)cc2[nH]ncc12` gave an IC50 of over 99.5 µM.
For the molecule `O=C(Nc1ccc2c(c1)CN(CC(F)F)C2)c1cc(Cl)cc2[nH]ncc12`, the IC50 stood at 3.8 µM.
`O=C(Nc1ccc2c(c1)CNC2)c1cc(C(F)(F)F)cc2[nH]ccc12` had an IC50 of 1.07 µM.
As to `CNC(=O)[C@H](Nc1ccc2c(c1)CNC2)c1cc(Cl)cc2[nH]ncc12`, the IC50 is 0.075 µM and 0.05 µM.
With `NCc1ccc(NC(=O)c2cc(Cl)cc3[nH]ncc23)cc1`, the 50% inhibitory concentration (IC50) amounted to 3.18 µM.
The value for `O=C(O)c1cc2cc(-c3cccc([C@H]4CCOC4)n3)ccc2[nH]1` was over 99.5 µM; that for `O=C(Nc1ccc2c(c1)CNC2)c1cc(=O)[nH]c2c(F)cccc12` was 18.7 µM.
The value for `NCc1cccc([C@@H]2[C@H](C(=O)O)[C@H]2c2cc(N)cc(Cl)c2)c1` was over 99.5 µM; that for `NCCc1cccc(NC(=O)c2cc(Cl)cc3[nH]ncc23)c1` was 0.632 µM; that for `O=C(Nc1ccc2c(c1)[C@H]1CC[C@H]2N1)c1cc(Cl)cc2[nH]ncc12` was 5.65 µM.
Then `O=C(NCc1ccc2c(c1)CNC2)c1cc(Cl)cc2[nH]ncc12`, with 12 µM; and `O=C(Nc1ccc2c(c1)CCNCC2)c1cc(Cl)cc2[nH]ncc12`, with 0.37 µM.
In turn, `O=C(Nc1ccc2c(c1)CNC2)c1ncc(Br)s1` had an IC50 of 61.7 µM.
Take `O=C(c1cc(Cl)cc2[nH]ncc12)N1CC[C@]2(CCNC2)C1`: the IC50 is over 99.5 µM.
`O=C(Nc1ccc2c(c1)CNC2)c1cc(Br)cc2[nH]ncc12`: the concentration for half-maximal inhibition (IC50) is 0.055 µM and 0.049 µM.
`COC(=O)c1ccc2[nH]cc(Cc3ccc(-c4nnn[nH]4)cc3)c2c1`: the IC50 is over 99.5 µM.
Molecule `O=C(c1cc(Cl)cc2[nH]ncc12)N1CCC(C2CCNCC2)CC1` came in with a half-maximal inhibitory concentration (IC50) of over 99.5 µM.
With `O=C1NCc2ccc(NC(=O)c3cc(Cl)cc4[nH]ncc34)cc21`, the IC50 is over 99.5 µM.
With `CNC(=O)[C@]1(Nc2ccc3c(c2)CNC3)C(=O)Nc2c(OC)cc(Br)cc21`, the IC50 came to 53.8 µM.
The value for `O=C(Nc1ccc2c(n1)CNC2)c1cc(Cl)cc2[nH]ncc12` was 0.608 µM.
Regarding `O=C(Nc1ccc2c(c1)CNC2)c1ncnc2ccsc12`, the half-inhibitory concentration (IC50) is over 99.5 µM.
Regarding `Cc1ccc(NC(=O)c2cc(Cl)cc3[nH]ncc23)cc1CN`, the IC50 amounted to 1.39 µM.
The value for `CC(=O)Nc1cc(Br)cc(C(=O)Nc2ccc3c(c2)CNC3)c1` was 0.082 µM and 0.069 µM; that for `O=C(O)c1ccc(NC(=O)c2cc(Cl)cc3[nH]ncc23)cc1` was over 99.5 µM; that for `N#C[C@H](Nc1cc(Cl)cc(C2CC2)c1)c1ccc(-c2nn[nH]n2)cc1` was 75.8 µM.
For `NC[C@H]1CC[C@H](NC(=O)c2cc(Cl)cc3[nH]ncc23)CC1`, 20.1 µM corresponded to half-maximal inhibition (IC50).
Then `O=C(Nc1ccc2c(c1)CNC2)c1cc(Br)cc2cccnc12`, with 13.4 µM; and `O=C(Nc1ccc2c(c1)CNC2)c1ccc(OCC(F)(F)F)nc1`, with 22.2 µM.
`O=C(O)Cc1cn2nc(-c3cc(Cl)cc(NC(=O)OCc4ccccc4)c3)ccc2n1` showed an IC50 of over 99.5 µM.
The molecule `Nc1nccc(C(=O)Nc2ccc3c(c2)CNC3)n1` came in with an IC50 of 46.9 µM.
Regarding `O=C(Nc1cc(Cl)cc(-c2cc(C(=O)O)n(-c3ccc(F)cc3)n2)c1)OCc1ccccc1`, it took 32.4 µM to reach half-maximal inhibition (IC50).
In turn, `N[C@H]1CCCc2ccc(NC(=O)c3cc(Cl)cc4[nH]ncc34)cc21` yielded an IC50 of 2.97 µM.
The value for `N[C@H]1Cc2ccc(NC(=O)c3cc(Cl)cc4[nH]ncc34)cc2C1` was 0.488 µM; that for `CCc1nc2ccc(Cl)cc2n1Cc1ccc2c(c1)CNC2` was over 99.5 µM.
Molecule `CNCc1cccc(NC(=O)c2cc(Cl)cc3[nH]ncc23)c1` yielded an IC50 of 4.8 µM.
Regarding `CC(C)(C)c1[nH]c2ccc(F)cc2c1Cc1ccc(-c2nnn[nH]2)cc1`, the IC50 was over 99.5 µM.
For `CCNCc1ccc(NC(=O)c2cc(Cl)cc3[nH]ncc23)cc1`, half-maximal inhibition (IC50) was put at 11.5 µM.
Take `O=C(Nc1ccc2c(c1)CNC2)c1cncc(N2CCOCC2)c1`: the IC50 is 66.3 µM.
Consider `N#Cc1cc(C(=O)Nc2ccc3c(c2)CNC3)cc(C(F)(F)F)c1`, for which half-maximal inhibition (IC50) was put at 0.533 µM.
Turning to `Cc1cc(C#N)cc2c(Cc3ccc(-c4nnn[nH]4)cc3)c[nH]c12`, the IC50 is over 99.5 µM.
As to `COc1nnc(C(F)(F)F)cc1-c1ccc2[nH]c(C(=O)O)cc2c1`, the IC50 was over 99.5 µM.
Regarding `CCc1nccn1CC(=O)Nc1ccc2c(c1)CNC2`, the IC50 was over 99.5 µM.
`COCCCN1Cc2ccc(NC(=O)c3cc(Cl)cc4[nH]ncc34)cc2C1`: the half-maximal inhibitory concentration (IC50) turned out to be 13.1 µM.
`O=C(CSc1cccc(Br)c1)Nc1ccc2c(c1)CNC2`: the IC50 is over 99.5 µM.
